# Assay results: patent publication US20260231944A1, “ANTISEPTIC CONDITIONING FORMULATIONS” (THOMMES MEDICAL AG, priority 2023, published 2026)
# Assays:
# [1] = precipitation test of PHMB and CHX in alkaline buffers (visual inspection/visible clouding); format: physicochemical
# [2] = test system: Human periodontal ligament fibroblasts (HPDLF); assay: cell viability of human primary cells after antiseptics in T. buffer, AlamarBlue assay; format: cell-based
# Description: Human periodontal ligament fibroblasts (HPDLF) were used in this study as test system, imitating closer the in vivo situation. The fibroblasts were purchased from ATCC and cultured in ScienCell FM medium, supplemented with 2% fetal bovine serum, 1% fibroblast growth factor and 1% penicillin-streptomycin (Sigma-Aldrich, Switzerland) in T75 flasks at 37° C. and 5% CO2.
# To study the effect of antiseptic substances, at concentrations that are currently used in marketed products, the vitality of HPDLF cells was assessed. […] As a control, cells were incubated with T. buffer without antiseptic agent. Three replicate wells per concentration were tested. After 1 minute of incubation at 37°, the supernatant was removed and the wells were washed once with 600 μl of the fresh medium. Thereafter, cells were incubated with 600 µL of the fresh medium containing 0.015 mg/ml AlamarBlue dye, for 4 hours at 37° C. Finally, 100 μL of the medium were removed from each well and transferred to a new 96-well plate and the absorbance was measured using a BioTek microplate reader (test wavelength: 570 nm; reference wavelength: 630 nm).
# After the incubation with the antiseptic agents, the metabolic activity was measured using an AlamarBlue assay (after 4 h).
# Description for L929 murine fibroblasts: Mouse fibroblasts (L929 cell line) were used in this study as recommended cell line for cytotoxicity testing in accordance with EN ISO 10993-5.
# The fibroblasts were purchased from ATCC and cultured in Dulbecco's Modified Eagle Medium-high glucose, supplemented with 10% fetal bovine serum and 1% penicillin-streptomycin (Sigma-Aldrich, Switzerland) in T75 flasks at 37° C. and 5% CO2. For the performance of the cytotoxicity experiments, L929 cells were seeded onto 96-well cell culture plates, 100 μ/well, at a density of 1×10^6 cells/mL to reach about 80% confluence after 24 hours.
# After 60 minutes of incubation at 37°, the medium was removed and the wells were washed once with 100 μl of the fresh medium.
# Thereafter, cells were incubated with 100 μL of the fresh medium containing 0.015 mg/ml AlamarBlue dye, for 2 hours at 37° C.
# Finally, 100 μL of the media were removed from each well and transferred to a new 96-well plate and the absorbance was measured using a BioTek microplate reader (test wavelength: 570 nm; reference wavelength: 630 nm).
# In order to test the cytocompatibility of alkaline buffers, a similar experiment was performed. However, the alkaline buffers were incubated for 10 minutes instead of 60 minutes. […]
# After the incubation time, the metabolic activity, used as an indirect marker for cytotoxicity, was measured with an AlamarBlue assay. […]
structure (smiles),measurement,setting,value
"[H]/N=C(\N/C(=N/[H])NCCCCCCNC(=N)NC(=N)Nc1ccc(Cl)cc1)Nc1ccc(Cl)cc1 [CHX, 1,6-bis(4-chloro-phenylbiguanido)hexane]",precipitation,"[1]; CHX 0.06% in 0.05 M NaOH/0.05 M glycine, pH 11.06",precipitation occurs
same,precipitation,"[1]; CHX 0.06% in 0.05 M NaOH/0.1 M glycine, pH 9.9",no precipitation
same,cell viability,"[2]; CHX 0.06 and 0.12% in T. buffer, 1 minute",Low cell viability
C[S+](C)[O-] [DMSO],cell viability,[2]; 5% DMSO (negative control),low cell viability
[Na+].[OH-] [sodium hydroxide],metabolic activity (AlamarBlue),L929 murine fibroblasts,significant reduction in metabolic activity
